Data from PMC6063448, “Antimicrobial activity of linear lipopeptides derived from BP100 towards plant pathogens” (PLoS ONE, 2018).

How the values were obtained:
[1] = test system: defense-related genes in tomato plants; experiment: Induction of defense gene expression of tomato plants (RT-qPCR); format: in vivo, tomato cv. Rio Grande; conditions: for BCB gene expression, fold induction / ERT3 gene expression, fold induction / GluA gene expression, fold induction / Harp gene expression, fold induction / LOX gene expression, fold induction / Osm2 gene expression, fold induction / PPO gene expression, fold induction / PR1 gene expression, fold induction / PinII gene expression, fold induction / Sub1 gene expression, fold induction / Tas14 gene expression, fold induction: tomato leaves sprayed, 24 h, peptides and flg15 125 μM, JA 2.5 mM, ASM 300 mg/L, ΔΔCt relative to actin, above 2 = overexpression; for Defense gene expression in tomato plants (genes overexpressed): treatment at 125 μM, significant overexpression (REST2009)
Experimental: Seeds of tomato cv. Rio Grande plants were sown in hydroponic seed plugs (rockwool), germinated and grown under controlled greenhouse conditions (25 ± 2°C, 16 h light / 15 ± 2°C, 8 h dark, and 60% RH). Two-week old seedlings (two cotyledons) were transplanted into rockwool plugs (7.5×7.5×6.5 cm, Grodan Iberica). The experimental design consisted of three replicates of three plants per treatment. After two weeks, tomato leaves were sprayed with aqueous solutions of BP100, 9 selected derivatives and flg15 at 125 μM, jasmonic acid at 2.5 mM (Sigma-Aldrich, Sant Louis, Missouri, UE), and acybenzolar-S-methyl at 300 mg/L (Syngenta, Basel, Switzerland), until the run-off point. Water-sprayed plants were used as not treated controls. Twenty-four hours after product application leaf samples were collected and processed to extract RNA for RT-qPCR assays. Plant material was ground to a fine powder in liquid nitrogen with the Tissuelyzer II system (Qiagen). Total RNA was extracted from leaves using PureLink Plant RNA Reagent (Invitrogen, Life Technologies) according to the manufacturer’s manual. The RNA was solubilized in RNAse free water and was routinely subjected to DNAse treatment (Ambion® Turbo DNA-free™, Life Technologies) to remove any contaminant DNA. In each step, the RNA was quantified using a Nanodrop N-2000 spectrophotometer, and its integrity verified by denaturing agarose gel electrophoresis. First-strand of complementary DNA (cDNA) was generated from leave RNA using reverse transcriptase (High Capacity cDNA Reverse Transcription Kit, Invitrogen) according to the manufacturer’s manual.
To test gene defense induction in the treated tomato plants, a qPCR assay was performed. Quantitative PCR was carried out in a fluorometric thermal cycler (qPCR Quant Studio 5, Applied Biosystems) by using a Mix SYBR®Green PCR Master Mix (Applied Biosystems). The total reaction volume of this PCR reaction was 20 μL and the reaction mixture was 1 μL of each primer set at the adequate concentration, 10 μL of MixSyber Green, 6 μL of distilled water and 2 μL of cDNA. Melting curve analysis was performed after amplification to verify amplification specificity. A constitutive gene (actin gene) was used as reference control, and the following genes implicated in plant defense response were analyzed: Pathogenesis-related protein-1 (PR1), Harpin (Harp), Polyphenol oxidase (PPO), Subtilisin-like protease (Sub1), Blue copper binding-protein (BCB), Osmotin (Osm2), Acidic β-1,3 endoglucanase (GluA), Lypoxigenase (LOX), Protein inhibitor II (PinII), Dehydrin (Tas14) and Ethylene response transcription factor (ERT3). […] For each gene system, the concentration of the primer pair was optimized. The primer concentration was 100 nM for all the genes except for the GluA, Harp, PR1 and actin genes which optimized concentration was 300 nM. A calibration curve was prepared by cloning the corresponding DNA in the pSpark cloning vector (Canvax, Córdoba, Spain) according to the manufacturer instructions, which was then used to transform E. coli DH5α by standard procedures. The number of plasmid copies were quantified after purification from E. coli (QIAGEN Iberia, S. L., Madrid, Spain), and appropriate dilutions were prepared to obtain the standard curve. […] Relative quantification of gene expression was done using the ΔΔCt method. Each biological repetition treatment was analyzed in duplicate. The mean of the Ct values obtained were used to estimate the fold change value of the endogenous reference gene (actin) and the target plant defense genes.

tobacco leaves = experiment: Effect of peptide infiltration on tobacco leaves; format: in vivo
Experimental: BP100 and the 36 lipopeptides were evaluated for their effect upon infiltration on tobacco leaves as described previously. Peptide solutions of 50, 150 and 250 μM were infiltrated (100 μL) into the mesophylls of fully expanded tobacco leaves. Infiltrations were carried out in a single leaf, and for each peptide and dose, at least three leaves randomly distributed in different plants were inoculated. Control infiltrations with water (negative control) or melittin (positive control) at the same molar concentration were performed. The appearance of symptoms on the leaves was followed for 48 h after infiltration and measured as a lesion diameter.

proteinase K = test system: T1, proteinase K; experiment: Susceptibility to protease degradation; format: in vitro ADME; conditions: proteinase K (isolated protease) in TRIS buffer; 50 μg/mL peptide, 1 μg/mL proteinase K, 100 mM TRIS buffer pH 7.6, 25°C, 60 min; decrease of HPLC peak area (220 nm); read-out: Digestion with proteinase K (percentage of degraded peptide)
T1 construct: purchased Sigma-Aldrich Corporation, Spain
Experimental: Digestion of BP100 and of 16 selected lipopeptides was carried out by treating 50 μg/mL peptide with 1 μg/mL proteinase K (Sigma-Aldrich Corporation, Spain) in 100 mM TRIS buffer, pH 7.6, at 25°C. The peptide cleavage after 60 min was determined by HPLC using a Kromasil (4.6 × 40 mm; 3 μm particle size) C18 reverse-phase column. Linear gradients of 0.1% aqueous TFA and 0.1% TFA in CH3CN were run from 0.98:0.02 to 0:1 over 12 min with UV detection at 220 nm. Digestion was estimated as the percentage of degraded lipopeptide calculated from the decrease of the HPLC peak area of the native peptide.

Row | SMILES | BCB gene expression, fold induction [1] | ERT3 gene expression, fold induction [1] | GluA gene expression, fold induction [1] | Harp gene expression, fold induction [1] | LOX gene expression, fold induction [1] | Osm2 gene expression, fold induction [1] | PPO gene expression, fold induction [1] | PR1 gene expression, fold induction [1] | PinII gene expression, fold induction [1] | Sub1 gene expression, fold induction [1] | Tas14 gene expression, fold induction [1] | Defense gene expression in tomato plants (genes overexpressed) [1] | Reaction observed in the area of infiltration of tobacco leaves (tobacco leaves; in contrast to melittin) | metabolised at 1 h, 50 μg/mL (proteinase K) | Size of the lesions in infiltrated tobacco leaves (diameter) (tobacco leaves; 250 μM, 100 μL infiltrated into mesophyll, measured after 48 h)
1 | CCCCCCCCCCCC(=O)NCCCC[C@H](NC(=O)[C@H](CC(C)C)NC(=O)[C@@H](NC(=O)[C@H](CCCCN)NC(=O)[C@H](CCCCN)NC(=O)[C@H](Cc1ccccc1)NC(=O)[C@H](CC(C)C)NC(=O)[C@H](CCCCN)NC(=O)[C@H](CCCCN)NC(C)=O)[C@@H](C)CC)C(=O)N[C@@H](Cc1ccc(O)cc1)C(=O)N[C@@H](CC(C)C)C(N)=O [BP400, Ac-KKLFKKILK(COC11H23)YL-NH2] | 0.6 | 0.2 | 0.1 | 1.4 | 1.1 | 0.9 | 1.4 | 0.1 | 1.1 | 0.5 | 8.3 | one gene (Osm2, Tas14 or BCB) | not a typical necrosis | – | –
2 | CCCCCC(=O)NCCCC[C@H](NC(=O)[C@H](CCCCN)NC(=O)[C@H](CCCCN)NC(=O)[C@H](Cc1ccccc1)NC(=O)[C@H](CC(C)C)NC(=O)[C@H](CCCCN)NC(=O)[C@H](CCCCN)NC(C)=O)C(=O)N[C@@H](CC(C)C)C(=O)N[C@@H](CCCCN)C(=O)N[C@@H](Cc1ccc(O)cc1)C(=O)N[C@@H](CC(C)C)C(N)=O [BP374, Ac-KKLFKKK(COC5H11)LKYL-NH2] | 1.0 | 2.0 | 0.5 | 0.9 | 1.9 | 1.6 | 0.7 | 0.5 | 1.7 | 0.8 | 1.2 | – | – | – | –
3 | CCCC(=O)NCCCC[C@H](NC(=O)[C@@H](NC(=O)[C@H](CCCCN)NC(=O)[C@H](CCCCN)NC(=O)[C@H](Cc1ccccc1)NC(=O)[C@H](CC(C)C)NC(=O)[C@H](CCCCN)NC(=O)[C@H](CCCCN)NC(C)=O)[C@@H](C)CC)C(=O)N[C@@H](CCCCN)C(=O)N[C@@H](Cc1ccc(O)cc1)C(=O)N[C@@H](CC(C)C)C(N)=O [BP387, Ac-KKLFKKIK(COC3H7)KYL-NH2] | 1.7 | 0.2 | 0.7 | 1.2 | 0.7 | 1.0 | 1.3 | 0.4 | – | 0.8 | 1.0 | none | – | 15% | 9.2 ± 0.96 mm
4 | CC[C@H](C)[C@H](NC(=O)[C@H](CCCCN)NC(=O)[C@H](CCCCN)NC(=O)[C@H](Cc1ccccc1)NC(=O)[C@H](CC(C)C)NC(=O)[C@H](CCCCN)NC(=O)[C@@H](N)CCCCN)C(=O)N[C@@H](CC(C)C)C(=O)N[C@@H](CCCCN)C(=O)N[C@@H](Cc1ccc(O)cc1)C(=O)N[C@@H](CC(C)C)C(N)=O [BP100, H-Lys-Lys-Leu-Phe-Lys-Lys-Ile-Leu-Lys-Tyr-Leu-NH2] | 0.8 | 1.0 | 1.5 | 0.5 | 1.2 | 1.0 | 3.2 | 2 | 4.9 | 1.8 | 1.4 | PPO and PinII | – | 24% | –
